In assay [1] the test system is Muscle tissue. Description: Inhibition of physiological calcium release in mouse sarcoplasmic reticular skeletal muscle at 50 uM. The class given is functional, tissue-based.
For assay [2], the species on record is Mus musculus. Description: Inhibition of Ca2+-induced calcium release in mouse sarcoplasmic reticular skeletal muscle at 50 uM. The assay is classed as functional.
Assay [3] has as its target Ryanodine receptor 1 (Homo sapiens) (UniProt P21817). Description: Binding affinity to RyR1 by photolabeling experiment.
Assay [4] deals with Muscle tissue. Description: Inhibition of physiological calcium release in mouse sarcoplasmic reticular skeletal muscle. The assay is classed as functional, tissue-based.
The species entered for assay [5] is Mus musculus. Description: Inhibition of Ca2+-induced calcium release in mouse sarcoplasmic reticular skeletal muscle. The assay is classed as functional.
[6] abbreviates: tested as the 125I-labelled form.

The structures appear in SMILES notation. The source made the active and inactive calls. No cut-off for these calls is given here.

Results on four compounds are retold here after ChEMBL document CHEMBL1152776, “Facile synthesis of diazido-functionalized biaryl compounds as radioisotope-free photoaffinity probes by Suzuki-Miyaura coupling” (Bioorg Med Chem, 2009).

Chain of Ryanodine receptor 1 (Homo sapiens) (P21817 whole entry): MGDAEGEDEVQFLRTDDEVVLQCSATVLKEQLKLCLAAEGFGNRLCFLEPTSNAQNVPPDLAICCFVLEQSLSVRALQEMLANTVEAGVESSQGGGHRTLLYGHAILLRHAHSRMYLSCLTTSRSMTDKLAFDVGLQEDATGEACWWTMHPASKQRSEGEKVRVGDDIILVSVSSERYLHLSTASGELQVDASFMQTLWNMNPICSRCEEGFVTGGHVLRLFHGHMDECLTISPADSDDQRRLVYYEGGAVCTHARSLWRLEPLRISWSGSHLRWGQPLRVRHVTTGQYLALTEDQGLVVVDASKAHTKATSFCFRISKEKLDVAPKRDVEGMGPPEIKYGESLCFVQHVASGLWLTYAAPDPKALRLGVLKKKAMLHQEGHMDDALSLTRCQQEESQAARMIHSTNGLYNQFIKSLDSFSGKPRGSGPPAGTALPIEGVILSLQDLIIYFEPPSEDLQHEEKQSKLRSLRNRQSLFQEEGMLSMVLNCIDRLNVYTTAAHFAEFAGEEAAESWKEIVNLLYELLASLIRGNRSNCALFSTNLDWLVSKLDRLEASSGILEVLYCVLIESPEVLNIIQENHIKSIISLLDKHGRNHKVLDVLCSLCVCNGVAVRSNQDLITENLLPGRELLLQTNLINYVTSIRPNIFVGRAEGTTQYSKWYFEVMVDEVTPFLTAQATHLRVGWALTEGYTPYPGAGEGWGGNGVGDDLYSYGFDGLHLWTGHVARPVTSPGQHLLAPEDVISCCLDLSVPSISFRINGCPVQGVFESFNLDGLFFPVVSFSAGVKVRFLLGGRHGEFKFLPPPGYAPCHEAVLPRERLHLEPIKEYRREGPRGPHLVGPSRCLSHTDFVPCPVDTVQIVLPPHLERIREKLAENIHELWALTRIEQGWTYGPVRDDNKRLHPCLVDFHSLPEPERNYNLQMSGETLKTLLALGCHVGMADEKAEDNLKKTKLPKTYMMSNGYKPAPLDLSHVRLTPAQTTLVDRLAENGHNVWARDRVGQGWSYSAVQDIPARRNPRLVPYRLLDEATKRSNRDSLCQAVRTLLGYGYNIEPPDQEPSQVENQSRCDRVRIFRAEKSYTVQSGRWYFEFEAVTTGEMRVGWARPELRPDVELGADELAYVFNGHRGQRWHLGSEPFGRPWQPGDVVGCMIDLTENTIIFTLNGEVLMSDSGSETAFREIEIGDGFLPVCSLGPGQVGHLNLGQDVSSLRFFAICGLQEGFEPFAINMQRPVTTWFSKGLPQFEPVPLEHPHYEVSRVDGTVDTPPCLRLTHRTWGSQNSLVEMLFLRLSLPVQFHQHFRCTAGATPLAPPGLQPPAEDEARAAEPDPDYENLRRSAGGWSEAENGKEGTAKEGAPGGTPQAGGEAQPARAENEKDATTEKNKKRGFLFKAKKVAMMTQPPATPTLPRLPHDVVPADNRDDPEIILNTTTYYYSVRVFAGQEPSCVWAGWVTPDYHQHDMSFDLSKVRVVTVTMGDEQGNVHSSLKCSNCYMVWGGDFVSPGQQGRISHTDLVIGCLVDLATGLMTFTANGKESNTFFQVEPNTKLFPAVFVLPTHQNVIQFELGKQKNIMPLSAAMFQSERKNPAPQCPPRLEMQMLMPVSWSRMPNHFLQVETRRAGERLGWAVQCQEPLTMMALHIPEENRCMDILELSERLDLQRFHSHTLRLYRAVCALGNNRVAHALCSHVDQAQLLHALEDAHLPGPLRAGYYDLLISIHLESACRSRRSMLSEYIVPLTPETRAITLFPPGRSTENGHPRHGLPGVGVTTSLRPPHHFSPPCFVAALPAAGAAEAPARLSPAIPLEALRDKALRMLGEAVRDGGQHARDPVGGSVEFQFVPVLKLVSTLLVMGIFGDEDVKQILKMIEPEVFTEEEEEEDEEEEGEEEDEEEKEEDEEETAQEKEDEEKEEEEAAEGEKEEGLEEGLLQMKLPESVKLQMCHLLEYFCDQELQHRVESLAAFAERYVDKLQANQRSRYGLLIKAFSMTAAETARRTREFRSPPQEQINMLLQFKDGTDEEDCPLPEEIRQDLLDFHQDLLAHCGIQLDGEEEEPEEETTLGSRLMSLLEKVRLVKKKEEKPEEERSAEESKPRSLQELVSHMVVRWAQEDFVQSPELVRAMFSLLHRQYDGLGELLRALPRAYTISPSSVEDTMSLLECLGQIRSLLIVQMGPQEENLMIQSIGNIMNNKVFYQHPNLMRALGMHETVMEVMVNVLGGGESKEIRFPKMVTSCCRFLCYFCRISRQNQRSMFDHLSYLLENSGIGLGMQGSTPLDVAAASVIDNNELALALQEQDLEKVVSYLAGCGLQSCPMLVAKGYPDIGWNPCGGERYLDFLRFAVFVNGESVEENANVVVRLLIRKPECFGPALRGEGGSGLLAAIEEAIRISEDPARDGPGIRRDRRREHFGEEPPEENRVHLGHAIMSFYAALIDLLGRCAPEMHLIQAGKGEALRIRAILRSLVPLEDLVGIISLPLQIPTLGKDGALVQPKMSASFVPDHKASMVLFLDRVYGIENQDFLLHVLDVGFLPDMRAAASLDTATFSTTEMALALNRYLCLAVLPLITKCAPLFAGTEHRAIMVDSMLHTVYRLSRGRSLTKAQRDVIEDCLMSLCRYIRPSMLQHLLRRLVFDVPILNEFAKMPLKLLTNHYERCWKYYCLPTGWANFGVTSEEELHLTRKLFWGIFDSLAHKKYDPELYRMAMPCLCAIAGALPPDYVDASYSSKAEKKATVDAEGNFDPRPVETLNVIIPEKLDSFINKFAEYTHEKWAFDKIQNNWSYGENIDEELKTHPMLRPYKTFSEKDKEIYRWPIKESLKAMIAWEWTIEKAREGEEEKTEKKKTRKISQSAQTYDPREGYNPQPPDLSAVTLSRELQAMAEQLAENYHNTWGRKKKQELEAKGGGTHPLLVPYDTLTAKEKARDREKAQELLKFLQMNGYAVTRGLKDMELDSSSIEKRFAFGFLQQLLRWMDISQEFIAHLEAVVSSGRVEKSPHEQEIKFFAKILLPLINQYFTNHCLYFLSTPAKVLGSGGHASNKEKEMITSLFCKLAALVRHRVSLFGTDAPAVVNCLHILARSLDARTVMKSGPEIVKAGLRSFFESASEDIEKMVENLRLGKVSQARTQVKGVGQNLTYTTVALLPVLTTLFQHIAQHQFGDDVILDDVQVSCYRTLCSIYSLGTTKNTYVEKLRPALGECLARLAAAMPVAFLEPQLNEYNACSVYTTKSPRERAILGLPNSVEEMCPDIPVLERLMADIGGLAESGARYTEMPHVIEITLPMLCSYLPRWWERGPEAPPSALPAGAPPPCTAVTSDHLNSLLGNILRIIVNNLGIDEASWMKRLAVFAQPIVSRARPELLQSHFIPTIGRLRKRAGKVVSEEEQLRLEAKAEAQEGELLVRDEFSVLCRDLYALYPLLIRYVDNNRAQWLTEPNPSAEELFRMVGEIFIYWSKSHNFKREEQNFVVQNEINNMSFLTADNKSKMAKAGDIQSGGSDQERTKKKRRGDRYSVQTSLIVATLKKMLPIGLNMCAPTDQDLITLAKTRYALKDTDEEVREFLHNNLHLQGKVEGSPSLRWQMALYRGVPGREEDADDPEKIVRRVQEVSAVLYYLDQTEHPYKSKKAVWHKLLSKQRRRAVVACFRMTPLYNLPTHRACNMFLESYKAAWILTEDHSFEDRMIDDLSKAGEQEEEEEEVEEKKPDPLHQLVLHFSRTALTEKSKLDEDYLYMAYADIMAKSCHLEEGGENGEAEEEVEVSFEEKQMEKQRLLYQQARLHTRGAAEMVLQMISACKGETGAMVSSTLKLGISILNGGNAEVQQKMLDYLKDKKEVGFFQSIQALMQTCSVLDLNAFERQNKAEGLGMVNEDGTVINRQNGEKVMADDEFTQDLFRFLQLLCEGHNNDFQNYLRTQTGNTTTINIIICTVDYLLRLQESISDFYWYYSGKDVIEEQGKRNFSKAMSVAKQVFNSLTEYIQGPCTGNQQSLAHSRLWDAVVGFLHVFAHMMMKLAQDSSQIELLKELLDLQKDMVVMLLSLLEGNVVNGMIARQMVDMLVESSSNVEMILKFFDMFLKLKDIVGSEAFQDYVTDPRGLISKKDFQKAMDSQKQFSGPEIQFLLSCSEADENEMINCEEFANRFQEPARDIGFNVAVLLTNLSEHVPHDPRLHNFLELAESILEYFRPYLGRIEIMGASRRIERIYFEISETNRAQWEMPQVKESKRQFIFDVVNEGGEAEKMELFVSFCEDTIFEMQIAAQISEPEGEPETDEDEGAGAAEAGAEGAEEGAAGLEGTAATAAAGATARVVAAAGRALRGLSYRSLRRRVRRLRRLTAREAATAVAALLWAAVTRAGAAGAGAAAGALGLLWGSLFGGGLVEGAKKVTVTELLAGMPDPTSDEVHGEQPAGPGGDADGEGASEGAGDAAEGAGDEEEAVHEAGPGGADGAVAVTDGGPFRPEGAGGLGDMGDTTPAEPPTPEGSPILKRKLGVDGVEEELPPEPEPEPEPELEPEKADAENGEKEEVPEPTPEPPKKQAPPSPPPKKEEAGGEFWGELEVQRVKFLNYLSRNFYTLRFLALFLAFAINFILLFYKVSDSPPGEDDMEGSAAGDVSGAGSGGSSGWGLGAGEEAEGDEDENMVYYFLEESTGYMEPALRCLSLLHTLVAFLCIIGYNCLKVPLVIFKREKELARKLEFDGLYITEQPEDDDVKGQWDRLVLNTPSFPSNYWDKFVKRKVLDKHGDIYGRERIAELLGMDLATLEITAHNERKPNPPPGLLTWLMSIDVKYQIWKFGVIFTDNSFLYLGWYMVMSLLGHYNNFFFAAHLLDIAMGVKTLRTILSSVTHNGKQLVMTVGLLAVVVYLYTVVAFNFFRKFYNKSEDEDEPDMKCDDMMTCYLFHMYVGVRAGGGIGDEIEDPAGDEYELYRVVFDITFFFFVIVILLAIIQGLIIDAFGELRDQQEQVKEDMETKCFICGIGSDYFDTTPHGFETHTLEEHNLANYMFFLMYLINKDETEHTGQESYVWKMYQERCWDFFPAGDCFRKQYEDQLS

In the case of `[N-]=[N+]=Nc1ccc(-c2ccc(/C=N/N3CC(=O)NC3=O)o2)cc1`, the result in assay [1] and in assay [2] was Active.
With `[N-]=[N+]=Nc1cc(I)cc(CN2C(=O)CN(/N=C/c3ccc(-c4ccc([N+](=O)[O-])cc4)o3)C2=O)c1`, the outcome in assay [3] (setting [6]) and in assay [5] (setting [6]) was inactive. In addition, in assay [4] (setting [6]), the result was Active.
Regarding `[N-]=[N+]=NCc1cc(N=[N+]=[N-])cc(-c2ccc(/C=N/N3CC(=O)NC3=O)o2)c1`, the result in assay [4] was Active. In addition, in assay [5], the outcome was inactive.
Take `[N-]=[N+]=NCc1cc(CN2C(=O)CN(/N=C/c3ccc(-c4ccc([N+](=O)[O-])cc4)o3)C2=O)cc(N=[N+]=[N-])c1`: the outcome in assay [3] was inactive. Also, the result in assay [4] was Active.
